{"source": "patent US9834784B2", "about": "“Pest resistant plants” (Keygene N.V., priority 2011, dated 2017)", "key": {"[1]": {"tested_on": "B. tabaci (biotype Q)", "experiment": "Clip cage bioassay B. tabaci (whitefly)", "assay_type": "in vivo, Bemisia tabaci", "settings": "clip cages, 20 adults, after 5 days; compared with S. lycopersicum C32", "procedure": "An interspecies cross between S. lycopersicum and S. habrochaites was performed and F2 lines were transferred to the greenhouse at the University of Amsterdam. The F2 plants were tested for their production of 7-epizingiberene. Cuttings were made of 7-epizingiberene producing F2 lines, S. lycopersicum C32 (moneymaker) and of S. habrochaites (PI127826). Both a parental line of the initial cross.\nTwo cuttings of genotypes PI127826 and C32 and the respective F2s received 4 clip cages, each of which contained 20 adult B. tabaci (biotype Q) initially collected in Almeria (Spain) and reared continuously on cucumber under laboratory conditions (see Bleeker et al., 2009—Plant Physiol.). After 5 days, the total number and percentage of dead flies and total nr of eggs (combined abaxial and adaxial side of leaves) was determined."}, "[2]": {"tested_on": "Tuta absoluta", "experiment": "No-choice oviposition assay Tuta absoluta", "assay_type": "in vivo", "settings": "F2 plants, FIGS. 10A and 10B", "procedure": "Tuta absoluta (order: Lepidoptera) were reared on tomato (S. lycopersicum). A no-choice assay was performed for 7 days. 5 adults were allowed to oviposit their eggs on S. lycopersicum (C32) plants and on F2 plants arisen from an interspecies cross between S. lycopersicum (C32) and S. habrochaites (PI127826). After 7 days, Tuta abosoluta oviposition (number of eggs deposited) was determined on the abaxial and adaxial side of six leaves per plant genotype. F2 plants were characterized for 7-epizingiberene content after the assay and Tuta abosoluta oviposition (number of eggs deposited) was correlated to the content of 7-epizingiberene."}, "[3]": {"tested_on": "Bemisia tabaci whiteflies", "settings": "cited from earlier work; for attractiveness of cultivated tomato to B. tabaci after addition of the compound: compared with neighbouring siblings, Bleeker et al. 2011; for repellent to Bemisia tabaci whiteflies: purified compounds, Bleeker et al., Phytochemistry 2011"}, "[4]": {"settings": "isolated compound; previously observed by Bleeker et al. 2011; cited from earlier work"}, "[5]": {"tested_on": "adult whiteflies B. tabaci", "settings": "Antonious et al. 2005; cited from earlier work"}, "[6]": {"tested_on": "fourth instar larvae of Colorado potato beetle", "settings": "Antonious et al. 2005; cited from earlier work"}, "[7]": {"experiment": "Enzyme activity assay with zFPP, products by enantioselective GC-MS", "assay_type": "biochemical", "settings": "heterologously expressed in E. coli; SPME, chiral column", "procedure": "The full length gene (comprising SEQ ID NO:4 5′ of SEQ ID NO:2 (SEQ ID NO:4-SEQ ID NO:2)) was cloned into the pGEX-KG expression vector (Guan and Dixon 1991). Constructs were transformed to C41 (DE3) E. coli cells (Dumon-Seignovert et al., 2004). As a control, empty pGEX-KG vector was transformed. A culture was grown to an OD600 of 0.5-0.6 at 37° C. and placed at 4° C. for 30 min. Protein expression was induced with 1 mM isopropyl β-D-1-thiogalactopyranoside (IPTG). After 16 hours incubation at 16° C., cells were harvested by centrifugation. The supernatant was removed and the pellet was resuspended in assay buffer (25 mM HEPES, pH 7.2, 10 mM MgCl2, 10% (v/v) glycerol) with added lysozyme (1 mg mL^−1) and proteinase inhibitors and incubated on ice for 30 minutes and subsequently sonicated. The lysate was centrifuged and the supernatant was stored at −80° C. Activity assays were performed in 500 μL 50 mM HEPES, pH7.2, 100 mM KCl, 7.5 mM MgCl2, 20 μM MgCl2, 5% (v/v) glycerol, 5 mM DTT with 50 μL protein and 2 mM cis-FPP(2Z-6Z-farnesyl diphosphate) as substrate. Enzyme products were analyzed by GC-MS with Solid Phase Micro Extraction fiber (SPME). Terpene products were identified using standards and comparing ion spectra, retention time and Kovats Index (see FIGS. 1 and 2). […]"}, "[8]": {"experiment": "Enzyme activity assay with E-E-FPP, products by enantioselective GC-MS", "assay_type": "biochemical", "settings": "heterologously expressed; SPME, chiral column", "procedure": "Activity assays were performed in 20 mL glass vials in a total volume of 500 μL 50 mM HEPES, pH7.2, 100 mM KCl, 7.5 mM MgCl2, 20 μM MgCl2, 5% (v/v) glycerol, 5 mM DTT with 50 μL protein and either 2 mM cis-FPP (2Z-6Z-farnesyl diphosphate), trans-FPP (E-E-farnesyl diphosphate), GPP (geranyl diphosphate), NDP (neryl diphosphate), or GGPP (geranylgeranyl diphosphate) as a substrate (Echelon Biosciences Incorporated, Salt Lake City, USA). Vials were closed with a teflon lined crimp cap immediately and incubated under moderate shaking for 1 hour at 30° C.\nEnzyme products were sampled with a Solid Phase Micro Extraction fiber (SPME) for 10 minutes after the vial had been agitated and heated to 50° C. The fiber was desorbed for 1 minute in an Optic injector port (ATAS GL Int. Zoeterwoude, NL) which was kept at 220° C. For liquid injection 1-3 μL of sample in hexane was injected.\nIn order to separate alpha-zingiberene from 7-epizingiberene the Astec CHIRALDEX™ B-DM column (30m×0.25 mm×0.12 μm film thickness; Supelco) was selected. The column was placed in an 6890 N gas chromatograph (Agilent, Amstelveen, NI). […] Helium was used as a carrier gas. Mass spectra were generated with the ion source set to −70V at 200° C. and collected with a Time-of-Flight MS (Leco, Pegasus III, St. Joseph, Mich., USA) at 1850 V, with an acquisition rate of 20 scans per second."}}, "data": [{"molecule": "CC(C)=CCC[C@@H](C)[C@@H]1C=CC(C)=CC1", "note": "[7-epizingiberene]", "values": [{"measurement": "resistance to whiteflies (adult mortality and oviposition)", "setting": "[1]", "result": "enhances resistance to whiteflies"}, {"measurement": "correlation of oviposition with 7-epizingiberene content", "setting": "[2]", "result": "negatively correlated"}, {"measurement": "attractiveness of cultivated tomato to B. tabaci after addition of the compound", "setting": "[3]", "result": "less attractive"}, {"measurement": "repellent to Bemisia tabaci whiteflies", "setting": "[3]", "result": "act as repellent"}, {"measurement": "stability when exposed to air", "setting": "[4]", "result": "spontaneously convert to R-curcumene"}]}, {"molecule": "CCCCCCCCCCCC(C)=O", "note": "[2-tridecanone]", "values": [{"measurement": "toxic effect against adult whiteflies B. tabaci", "setting": "[5]", "result": "toxic effect"}]}, {"molecule": "CC(C)=CCC[C@H](C)c1ccc(C)cc1", "note": "[S-curcumene]", "values": [{"measurement": "repellent to Bemisia tabaci whiteflies", "setting": "[3]", "result": "do not"}]}, {"molecule": "CCCCCCCCCC(C)=O", "note": "[2-undecanone]", "values": [{"measurement": "toxic effect against fourth instar larvae of Colorado potato beetle", "setting": "[6]", "result": "toxic effect"}]}, {"molecule": "CC(C)=CCC[C@H](C)[C@@H]1C=CC(C)=CC1", "note": "[alpha-zingiberene]", "values": [{"measurement": "repellent to Bemisia tabaci whiteflies", "setting": "[3]", "result": "do not"}]}, {"molecule": "CC(C)=CCC[C@@H](C)c1ccc(C)cc1", "note": "[R-curcumene]", "values": [{"measurement": "attractiveness of cultivated tomato to B. tabaci after addition of the compound", "setting": "[3]", "result": "less attractive"}, {"measurement": "repellent to Bemisia tabaci whiteflies", "setting": "[3]", "result": "act as repellent"}]}, {"molecule": "ShZIS: 7-epizingiberene synthase protein from Solanum habrochaites, SEQ ID NO:1 (protein, Solanum habrochaites) CSHSTPSSMNGFEDARDRIRESFGKVELSPSSYDTAWVAMVPSKHSLNEPCFPQCLDWIIENQREDGSWGLNPSHPLLLKDSLSSTLACLLALTKWRVGDEQIKRGLGFIETQSWAIDNKDQISPLGFEIIFPSMIKSAEKLNLNLAINKRDSTIKRALQNEFTRNIEYMSEGFGELCDWKEIIKLHQRQNGSLFDSPATTAAALIYHQHDKKCYEYLNSILQQHKNWVPTMYPTKIHSLLCLVDTLQNLGVHRHFKSEIKKALDEIYRLWQQKNEEIFSNVTHCAMAFRLLRISYYDVSSDELAEFVDEEHFFATSGKYTSHVEILELHKASQLAIDHEKDDILDKINNWTRTFMEQKLLNNGFIDRMSKKEVELALRNFYIISDLAENRRYIKSYEENNFKILKAAYRSPNINNKDLFIFSIRDFELCQAQHQEELQQLKRWFEDCRLDQLGLSEQFISASYLCAIPIVPGPELSDARLVYAKYVMLLTIVDDHFESFASTDECLNIIELVERWDDYASVGYKSERVKVLFSMFYKSIEEIATIAEIKQGRSVKNHLINLWLKVMKLMLMERVEWCSGKTIPRIEEYLYVSSITFGSRLIPLTTQYFIGIKISKDLLESDEIYGLCNFTGIVLRLLNDLQDSKREQKEGSINLVTLLMKSISEEEAIMKMKEILEMKRRELFKMVLVQKKGSQLPQLCKEIFWRTCKWAHFTYSQTDRYRFPEEMENHIDEVFYKPLNH", "values": [{"measurement": "product formed from Z-Z-FPP", "setting": "[7]", "result": "made 7-epizingiberene"}]}, {"molecule": "ObZIS: sweet lemon basil zingiberene synthase (Iijima et al., 2004), alpha-zingiberene synthase (protein, UniProt Q5SBP4 1-541, looked up) Alpha-zingiberene synthase: MESRRSANYQASIWDDNFIQSLASPYAGEKYAEKAEKLKTEVKTMIDQTRDELKQLELIDNLQRLGICHHFQDLTKKILQKIYGEERNGDHQHYKEKGLHFTALRFRILRQDGYHVPQDVFSSFMNKAGDFEESLSKDTKGLVSLYEASYLSMEGETILDMAKDFSSHHLHKMVEDATDKRVANQIIHSLEMPLHRRVQKLEAIWFIQFYECGSDANPTLVELAKLDFNMVQATYQEELKRLSRWYEETGLQEKLSFARHRLAEAFLWSMGIIPEGHFGYGRMHLMKIGAYITLLDDIYDVYGTLEELQVLTEIIERWDINLLDQLPEYMQIFFLYMFNSTNELAYEILRDQGINVISNLKGLWVELSQCYFKEATWFHNGYTPTTEEYLNVACISASGPVILFSGYFTTTNPINKHELQSLERHAHSLSMILRLADDLGTSSDEMKRGDVPKAIQCFMNDTGCCEEEARQHVKRLIDAEWKKMNKDILMEKPFKNFCPTAMNLGRISMSFYEHGDGYGGPHSDTKKKMVSLFVQPMNITI", "values": [{"measurement": "product formed from E-E-FPP", "setting": "[8]", "result": "made alpha-zingiberene"}]}]}
